Assay results published in paper PMC12705613 (Frontiers in Microbiology, 2025).

How the values were obtained:
[1] = test system: gut microbiota from WKYs; assay: Anaerobic incubation of drug with fecal gut microbiota from WKYs; format: in vitro ADME, rat; settings: for Qualitative analysis: metabolism to other compounds: WKY gut microbiota in vitro, UHPLC-Q-TOF-MS; for Remaining content: WKY gut microbiota, 40 μM drug, anaerobic 37 °C, mGAM
Protocol: Fresh fecal samples from WKYs and SHRs were collected and immediately transferred to an anaerobic chamber (90% N₂, 5% CO₂, 5% H₂). Fecal suspensions were prepared by homogenizing 1 g of feces in 15 mL of sterile phosphate-buffered saline containing 0.1% L-cysteine. […] Bacteria-free controls contained equivalent drug volumes consistently. […] Drug remaining content and non-target metabolites screen were detected by ultra-high performance liquid chromatography coupled with triple quadrupole mass spectrometry (UHPLC-TQ-MS) and ultra-high performance liquid chromatography with quadrupole time-of-flight mass spectrometry (UHPLC-Q-TOF-MS), respectively. The sample preparation process can be found in the Supplementary material. For UHPLC-Q-TOF-MS analysis, the MS parameters and IDA criteria can be seen in Supplementary Table S1.
The sample processing procedures were tailored to align with the experimental objectives. For qualitative metabolite profiling, supernatants from the co-incubation of bacteria and drugs were collected at designated time points, filtered using a 0.22 μm membrane, lyophilized, and reconstituted in 200 μL of methanol. After vortexing and centrifuging for 10 minutes at 4°C and 12,000 rpm, the supernatant was transferred to an LC vial, and 5 μL aliquot was injected into the UHPLC-Q-TOF-MS/MS. For quantitative analysis, 100 μL aliquots were taken from the co-incubation supernatant and spiked with 1,000 μL of methanol containing 500 ng/mL of irbesartan. Following one minute of vortexing and centrifugation at 12,000 rpm for 10 minutes, the resulting supernatant was transferred to an LC vial, and a 5μL aliquot was injected into the UHPLC-TQ-MS/MS.

[2] = in vivo; settings: rat, in vivo, po, 20 mg/kg; for AUC(0-inf): AUC0-∞; for MRT last: MRT0-t; for MRT inf: MRT 0-∞; for half-life: t1/2z
Protocol: The pharmacokinetic study was described as follows.
The UHPLC-TQ-MS analysis was conducted on an LC-30 AD ultra high-performance liquid chromatograph (Shimadzu, Japan) connected to an AB 4500 (AB Sciex, United States) Triple Quadrupole Mass Spectrometer with an ESI source. Chromatographic separation was achieved on an Acquity UHPLC HSS T3 column (100 × 2.1 mm, 1.8 μm) at 40 °C, and the eluent was aqueous formic acid (100:0.1, v/v) (A) and acetonitrile with formic acid (100:0.1, v/v) (B) at a flow rate of 0.3 mL min^−1. Gradient elution differs in the calculation of residual content and pharmacokinetic experiments. MRM mode was employed. Data processing was performed using Analyst Software (AB Sciex). The UHPLC-TQ-MS method validation was conducted in terms of selectivity, linearity, carryover, accuracy and precision, matrix effect, extraction recovery, dilution integrity, and stability under various conditions, which was performed in line with the FDA guidelines for bioanalytical assays. More details were described in the Supplementary material method.
The comparisons of the relative abundance of the genera between different groups were performed using the Wilcoxon rank-sum test. Comparisons between WKY and SHRs before and after CRO treatment were conducted using either a t-test or one-way ANOVA, with p values < 0.05 considered statistically significant. […] Graphs were created using GraphPad Prism 8.0 software.
For the determination of drug remaining contents in the supernatant, the gradient elution was as follows: 0.1–0.5 min at 45% B; 0.5–1.0 min at 45–65% B; 1.5–4.0 min at 65–85% B; 4.0–4.5 min at 85% B; 4.5–4.6 min at 85%–45% B; 4.6–5.0 min at 45% B. For pharmacokinetics, the gradient elution was performed as follows: 0–0.5 min at 30% B; 0.5–1.5 min at 30–45% B; 1.5–5.0 min at 45–60% B; 5.0–7.0 min at 60–80% B; 7.0–8.0 min at 80% B; 8.1–10.0 min at 30% B. The injection volume was 5 μ L. The multiple reaction monitoring (MRM) mode was used to detect analytes and IS in the positive ion mode. The mass spectrometry parameters were set as follows: ion spray voltage was 5500 V, turbo spray temperature (TEM) of 550℃; nebulizer gas (gas 1) of 50 psi; heater gas (gas 2) of 50 psi and curtain gas of 40 psi. Nitrogen was kept as the nebulizer and auxiliary gas.

[3] = test system: human intestinal flora; design: method as in Zimmermann et al., 2019; settings: in vitro; fecal samples from healthy individuals; ref Zimmermann et al., 2019; cited from earlier work
[4] = after administration; ref Zhou et al., 2009; Mukai et al., 2015; cited from earlier work

| Structure (SMILES) | Qualitative analysis: metabolism to other compounds [1] | Remaining content ([1]; 0 h) | Remaining content ([1]; 12 h) | Remaining content ([1]; 24 h) | Remaining content ([1]; 48 h) | Decrease of AUC0-∞ ([2]; SHR compared with WKY) | MRT0-t ([2]; SHR) | MRT 0-∞ ([2]; SHR) | t1/2z ([2]; SHR) | Cmax ([2]; SHR, Cmax) | MRT last ([2]; SHR) | MRT inf ([2]; SHR) | Tmax ([2]; SHR, Tmax) | half-life ([2]; SHR) | Cmax ([2]; WKY) | MRT0-t ([2]; WKY) | AUC(0-t) ([2]; WKY, AUC0-t) | AUC(0-inf) ([2]; WKY) | MRT last ([2]; WKY) | other results |
| --- | --- | --- | --- | --- | --- | --- | --- | --- | --- | --- | --- | --- | --- | --- | --- | --- | --- | --- | --- | --- |
| CCCCc1nc(Cl)c(C(=O)O)n1Cc1ccc(-c2ccccc2-c2nnn[nH]2)cc1 [E-3174] | neither losartan nor E-3174 was metabolized to other compounds | 37.45 ± 1.33 µM | 41.40 ± 1.42 µM | 39.27 ± 1.11 µM | 31.95 ± 1.41 µM | 72.42% | 11.21 ± 0.73 h | 21.63 ± 10.07 h | 9.10 ± 8.85 h | 1800 ± 1110 ng/mL | 8.84 ± 1.59 h | 15.1 ± 8.39 h | 4.75 ± 2.56 h | 10.1 ± 5.59 h | 6985.09 ± 6023.88 ng/mL | 12.64 ± 1.23 h | 65000 ± 44100 ng·h/mL | 78300 ± 41100 ng·h/mL | 8.39 ± 2 h | Tmax ([2]; SHR): 7.00 ± 1.67 h; AUC(0-t) ([2]; SHR, AUC0-t): 17600 ± 4270 ng·h/mL; AUC(0-inf) ([2]; SHR): 21600 ± 3070 ng·h/mL |
| CCCCc1nc(Cl)c(CO)n1Cc1ccc(-c2ccccc2-c2nn[nH]n2)cc1 [Losartan, Losartan potassium] | neither losartan nor E-3174 was metabolized to other compounds | 37.78 ± 2.05 µM | 36.96 ± 2.06 µM | 36.03 ± 0.78 µM | 33.85 ± 0.96 µM | 50.24% | 7.64 ± 1.16 h | 12.00 ± 2.70 h | 6.04 ± 2.28 h | 4000 ± 1770 ng/mL | 6.79 ± 1.38 h | 9.65 ± 3.34 h | 0.25 h | 5.91 ± 3.72 h | 9331.32 ± 7242.24 ng/mL | 9.99 ± 0.84 h | 29900 ± 15400 ng·h/mL | 39200 ± 20400 ng·h/mL | 5.89 ± 2.1 h | Degradation on exposure to fecal samples [3]: approximately 20%; Decline of AUC0-t ([2]; SHR compared with WKY): 39.88%; AUC0-∞ ([2]; SHR): 19483.83 ± 4098.26 ng·h/mL; AUC(0-t) ([2]; SHR): 18002.60 ± 2806.38 ng·h/mL; MRT 0-∞ ([2]; WKY): 23.65 ± 16.03 h; t1/2z ([2]; WKY): 13.67 ± 13.15 h; MRT inf ([2]; WKY): 16.7 ± 19.2 h; half-life ([2]; WKY): 13.6 ± 14.3 h; Excreted in feces [4]: ~60%; Excreted in urine [4]: approximately 35% |
